According to PMC8160911, “Anti-Melanogenic Properties of Velutin and Its Analogs” (Molecules, 2021):
“Also recorded” adds a separate entry of the source. Where two headings read alike, the source gives them in different places.

Assays:
[1] = ABTS free radical scavenging activity; conditions: for EC50: 10 min in the dark at RT
Description: In order to evaluate the antioxidant activity of the velutin derivatives, the ABTS radical scavenging activity was determined, as previously described. To generate the ABTS radical, 10 mL of 7 mM ABTS was mixed with 176 μL of 140 mM potassium peroxydisulfate in dH2O, and incubated in the dark at room temperature (RT) for 16 h, prior to use. The ABTS radical solution was diluted with absolute methanol, to obtain an absorbance of near 0.7 at 734 nm. Aliquots of 100 μL of each derivative in the indicated concentration range 2 to 200 μM were added to 100 μL of the diluted ABTS radical solution, and incubated for 10 min in the dark at RT. The absorbance was then measured at 732 nm using a SpectraMax M5 Multi-Mode microplate reader (Molecular Devices, Sunnyvale, CA, USA). The ABTS radical scavenging activity was calculated as follows:ABTS radical scavenging activity (%) = 1 − (Asample/Acontrol) × 100(1)

B16F10 melanoma cells = test: Melanin content in α-MSH-stimulated melanoma cells; type: cell-based, murine; conditions: 48 h; for effect on α-MSH-stimulated melanogenesis: 10 μM; for inhibition at 10 µM: Mus musculus, B16-F10, 10 μM, read-out: inhibition of α-MSH-stimulated melanogenesis
Description: (§1) B16F10 murine melanoma cells were cultured in DMEM medium (Gibco, Gaithersburg, USA) supplemented with 10% heat-inactivated fetal bovine serum (Gibco), 100 units/mL penicillin, and 100 μg/mL streptomycin (Gibco), at 37 °C under humidified 5% CO2.
The melanin content was determined as previously described, with some modifications. The melanoma cells were cultured in a 6-well plate for 24 h. They were treated with the indicated concentrations of velutin derivatives for a further 48 h, in the presence of 100 nM α–MSH. After washing twice with chilled Dulbecco’s phosphate buffered saline supplemented with calcium chloride and magnesium chloride (D-PBS, Gibco), the resulting cells were detached by incubation with trypsin–EDTA solution. After centrifugation at 1000 rpm for 3 min, the cell pellet was dissolved in 150 μL of 1 M NaOH containing 10% DMSO for 1 h at 60 °C. The melanin content was determined by the absorbance at 405 nm, using the microplate reader.
(§2) Figure 3 Effect of velutin derivatives on intracellular melanin synthesis in B16F10 melanoma cells. B16F10 cells were treated with 0.1% DMSO as vehicle, or with 10 μM of each derivative, for 48 h. (A) Melanin content in the B16F10 cells was determined using a photometric method, as described in the Experimental Section. (B) Cellular tyrosinase activity was determined by measuring dopachrome generated by the enzymatic reaction of cell lysates with L-DOPA. Data are expressed as the mean ± SD of three independent experiments (** p < 0.005, *** p < 0.001 as compared to α-MSH-stimulated B16F10 cells).

[2] = tested on: intracellular tyrosinase in B16F10 cells; test: Cellular tyrosinase activity in α-MSH-stimulated melanoma cells (L-DOPA to dopachrome in lysates); type: cell-based, murine; conditions: 48 h; for reversal of α-MSH-mediated tyrosinase activation / effect on α-MSH-mediated intracellular tyrosinase activation: 10 μM, 100 nM α-MSH
Description: as §1
Tyrosinase activity in B16 cells was examined on the basis of the amount of dopachrome produced from the catalytic reaction of intracellular tyrosinase. In brief, the melanoma cells were cultured in a 6-well plate for 24 h, followed by treatment with different concentrations of velutin derivatives for a further 48 h, in the presence of 100 nM of α–MSH. After washing twice with ice-cold D-PBS, the cells were lysed in 200 μL of radio-immunoprecipitation assay (RIPA) buffer (Sigma-Aldrich), containing protease and phosphatase inhibitors. After centrifugation of the cell lysate collected from each well at 15,000× g for 15 min, 100 μL of supernatant was mixed with 100 μL of 1 mM L-DOPA in PBS (pH 6.8), followed by incubation for 30 min at 37 °C. The absorbance of dopachrome was measured at 475 nm using the microplate reader. Data were normalized with protein concentration, determined by bicinchoninic acid assay.
as §2

mushroom tyrosinase = target: T1, mushroom tyrosinase (Agaricus bisporus, UniProt C7FF04); test: In vitro mushroom tyrosinase inhibition (dopachrome formation from L-tyrosine); type: biochemical
T1 construct: purchased Sigma-Aldrich
T1 sequence (C7FF04 1-392 limits assumed): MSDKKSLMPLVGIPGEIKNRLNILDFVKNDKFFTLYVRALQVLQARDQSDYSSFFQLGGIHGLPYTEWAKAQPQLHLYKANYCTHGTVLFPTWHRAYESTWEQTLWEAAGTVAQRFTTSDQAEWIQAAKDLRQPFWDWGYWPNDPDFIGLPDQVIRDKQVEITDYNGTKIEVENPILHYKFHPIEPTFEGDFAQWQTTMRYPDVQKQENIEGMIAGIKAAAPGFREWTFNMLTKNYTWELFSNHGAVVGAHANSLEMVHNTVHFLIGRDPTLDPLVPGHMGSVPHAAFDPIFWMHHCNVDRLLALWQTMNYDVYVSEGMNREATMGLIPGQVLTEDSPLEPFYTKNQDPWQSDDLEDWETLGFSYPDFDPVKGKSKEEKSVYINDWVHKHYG
Description: The inhibitory effect of velutin derivatives on tyrosinase activity was assessed by the amount of dopachrome synthesized from the catalytic reaction of tyrosinase. […] Then, 100 μL of 0.4 mM L-tyrosine was added to each well, followed by incubation for an additional 10 min at 37 °C.

[3] = tested on: B16F10 murine melanoma cells; test: Cell viability / cytotoxicity by MTT assay; type: cell-based; conditions: for death rate: 20 μM
Description: as §1
The viability of B16F10 cells was determined using an MTT assay, as previously described. In brief, B16F10 cells were seeded in 24-well plates at a density of 1 × 10^4 cells per well. After 24 h, the cells were treated with the indicated concentrations of velutin derivatives for 48 h. The cells were then incubated with MTT solution for 4 h, and the reduced formazan crystals were dissolved in DMSO. The resulting solution was transferred to 96-well plates, and the absorbance was measured at 540 nm, using a SpectraMax M5 Multi-Mode microplate reader.
Figure 2 Cytotoxicity of velutin derivatives in the B16F10 melanoma cells. B16F10 cells were treated with 0.1% DMSO as vehicle, or with 20 μM of each derivative, for 24 h. Cell viability was determined by the MTT assay, as described in the Experimental Section. Data are expressed as the mean ± SD of three independent experiments (** p < 0.005, *** p < 0.001 compared to the control cells).

[4] = 50 U/mL mushroom tyrosinase, L-tyrosine substrate, read-out: IC50 in Mushroom Tyrosinase Activity

With `OC[C@H]1O[C@@H](Oc2ccc(O)cc2)[C@H](O)[C@@H](O)[C@@H]1O` [Arbutin, arbutin, reference compound] the EC50 [1] was 12.7 µM.

For `COc1cc(O)c2c(=O)cc(-c3ccc(O)c(OC)c3)oc2c1` [Compound V1, Velutin], the “effect on α-MSH-stimulated melanogenesis” value (B16F10 melanoma cells; 100 nM α-MSH) was “completely inhibited”, the EC50 [1] was 23.1 µM and the “reversal of α-MSH-mediated tyrosinase activation” value (from here on “reversal”) [2] was 87%. For the same compound, the IC50 (mushroom tyrosinase; [4]) was 910 µM.

With `COc1ccc2c(=O)cc(-c3ccc(O)c(OC)c3)oc2c1` [Compound V2, 2-(4-Hydroxy-3-methoxyphenyl)-7-methoxy-4H-chromen-4-one] the “effect on α-MSH-stimulated melanogenesis” value (B16F10 melanoma cells; 100 nM α-MSH) was “completely inhibited”, the EC50 [1] was 21.9 µM and the “effect on α-MSH-mediated intracellular tyrosinase activation” value [2] was “did not”.

In the case of `COc1cc(-c2cc(=O)c3c(O)cccc3o2)ccc1O` [Compound V3, 5-Hydroxy-2-(4-hydroxy-3-methoxyphenyl)-4H-chromen-4-one], the inhibition at 10 µM (B16F10 melanoma cells; 100 nM α-MSH) is reported as 50.7%, the EC50 [1] is reported as 23.3 µM and the “reversal” value [2] is reported as 97%.

With `COc1cc(O)c2c(=O)cc(-c3ccc(O)cc3)oc2c1` [Compound V4, Genkwanin] the inhibition at 10 µM (B16F10 melanoma cells; 100 nM α-MSH) was 69.1%, the EC50 [1] was 55.7 µM and the “reversal” value [2] was 100%. It also gave an IC50 (mushroom tyrosinase) of 204 µM.

With `COc1cccc(-c2cc(=O)c3c(O)cc(OC)cc3o2)c1` [Compound V5, 5-Hydroxy-7-methoxy-2-(3-methoxyphenyl)-4H-chromen-4-one] the inhibition at 10 µM (B16F10 melanoma cells; 100 nM α-MSH) was 39.3%, the EC50 [1] was 96.6 µM and the “reversal” value [2] was 80%.

For `COc1cc(OC)c2c(=O)cc(-c3ccc(O)c(OC)c3)oc2c1` [Compound V6, 2-(4-Hydroxy-3-methoxyphenyl)-5,7-dimethoxy-4H-chromen-4-one], the “increase of melanin synthesis” value (B16F10 melanoma cells; 10 μM derivative, 100 nM α-MSH) was 3.0 fold and the EC50 [1] was 23.7 µM.

For `COc1cc(-c2cc(=O)c3c(O)cc(O)cc3o2)ccc1O` [Compound V7, Chrysoeriol], the “effect on α-MSH-stimulated melanogenesis” value (B16F10 melanoma cells; 100 nM α-MSH) was “not significantly changed; also recorded: no effect”, the EC50 [1] was 22.1 µM and the “effect on α-MSH-mediated intracellular tyrosinase activation” value [2] was “did not; also recorded: no effect”.

Work on `COc1cc(O)c2c(=O)cc(-c3ccc(O)c(O)c3)oc2c1` [Compound V8, 2-(3,4-Dihydroxyphenyl)-5-hydroxy-7-methoxy-4H-chromen-4-one] yielded a death rate [3] of 71.8%, an EC50 [1] of 5.47 µM and an IC50 (mushroom tyrosinase; [4]) of 202 µM.

In the case of `COc1cc(O)c2c(=O)cc(-c3ccc(OC)c(OC)c3)oc2c1` [Compound V9, 2-(3,4-Dimethoxyphenyl)-5-hydroxy-7-methoxy-4H-chromen-4-one], the “effect on α-MSH-stimulated melanogenesis” value (B16F10 melanoma cells; 100 nM α-MSH) is reported as “not significantly changed”, the EC50 [1] is reported as 100 µM and the “effect on α-MSH-mediated intracellular tyrosinase activation” value [2] is reported as “did not”. It also gave an IC50 (mushroom tyrosinase; [4]) of 715 µM.

For `COc1cc(OC)c2c(=O)cc(-c3ccc(OC)c(OC)c3)oc2c1` [Compound V10, 2-(3,4-Dimethoxyphenyl)-5,7-dimethoxy-4H-chromen-4-one], the death rate [3] was 24.0%, the “effect on α-MSH-stimulated melanogenesis” value (B16F10 melanoma cells; 100 nM α-MSH) was “not significantly changed” and the “effect on radical scavenging activity” value [1] was “no significant effect”. For the same compound, the “effect on α-MSH-mediated intracellular tyrosinase activation” value [2] was “did not”.

With `O=c1cc(-c2ccc(O)c(O)c2)oc2cc(O)cc(O)c12` [Compound V11, luteolin] the death rate [3] was 69.7%, the “effect on cell viability / cytotoxicity” value ([3]; concentrations up to 20 μM) was “cytotoxicity” and the EC50 [1] was 6.13 µM. The IC50 (mushroom tyrosinase; [4]) was 36.7 µM.

For `O=c1cc(-c2ccccc2)oc2ccccc12` [Compound V12, 2-Phenylchromen-4-one], the “effect on radical scavenging activity” value [1] was “no significant effect”.

With “α-melanocyte stimulating hormone [α–MSH, reference compound]” the “increase of melanin content by α-MSH” value (B16F10 melanoma cells; 100 nM α-MSH alone) was 1.9 fold and the “activation of tyrosinase by α-MSH” value ([2]; 100 nM α-MSH alone) was “approximately 1.7 fold”.
